# Measured values published in patent US20160084855A1, “Compositions and Methods for Modulation and Detection of Immune and Inflammatory Responses” (UNIVERSITY OF CONNECTICUT, priority 2013, published 2016).
# What was measured:
# [1] = Recovery of 3-OH isoC17:0 fatty acid from brains of mice with EAE (GC-MS); type: in vivo, mouse; conditions: mice that received PE DHC and had a disease score greater than 3.0, versus PBS or EtOH controls
# Method: Mice treated with PBS, EtOH or with 25 ng, 250 ng, or 2.5 μg PE DHC were sacrificed after day 20 post-EAE immunization. The brains were removed and extracted for phospholipids according to the method of Bligh and Dyer as previously described in Nichols “Distribution of 3-hydroxy iC17:0 in subgingival plaque and gingival tissue samples: Relationship to adult periodontitis” Infect. Immun. 62:3753-3760 (1994). Lipid extracts were dissolved in hexane isopropanol:water (6:8:0.75, v/v/v/) and three 0.5 mg aliquots were dispensed into glass tubes supplemented with 30 ng of isobranched C20:0. […] Lipids were treated to form pentofluorobenzyl ester, trimethylsilyl ether derivatives and analyzed by negative ion chemical ionization GC-MS, as described in Nichols (1994). Fatty acid recovery was quantified by selected ion monitoring for characteristic fatty acid negative ions. The data were expressed as picograms of 3-OH isobranched (iso)C17:0 per 0.5 mg of total brain lipid extracted.
# The cumulative disease index (CDI) was obtained by summing the daily average disease scores through Day 20. A mean of these daily disease scores (Mean Daily Disease) (+/−SEM) was calculated based on the 20 days of observation. […] Bacterial fatty acid levels in brain lipid extracts for each treatment group were evaluated using least squares linear regression analysis that included calculation of correlation coefficients. […]
# [2] = tested on: C57BL/6 (WT), TLR2−/−, IL-15−/− and IL-15Rα−/− mice with EAE; assay: EAE induced with MOG35-55 in CFA plus pertussis toxin; clinical grading; type: in vivo, mouse; conditions: for Mean Day of Onset of EAE / Mean Maximum Severity of EAE / Mean Incidence of disease: PE DHC; for Mean Maximum Severity of EAE: 20-day observation; for MDD (Mean Daily Disease) / CDI (cumulative disease index): PE DHC 250 ng single i.p. Day 0; for MDD (Mean Daily Disease): 20 days; for CDI (cumulative disease index): through Day 20
# Method: […]. In addition, mice were injected intraperitoneally (i.p.) on Day 0 with either P. gingivalis lipid or the vehicle control, 70% ethanol (EtOH). EAE was scored as: Grade 1-tail paralysis; Grade 2-weakness of hind limbs with an altered gait; Grade 3-hind limb paralysis; Grade 4-front limb paralysis; Grade 5-death.
# For treatment of mice, preweighed lipids were dissolved in 70% ethanol to achieve a final concentration of 125 ng/μl, and sonicated for 2.5 minutes immediately before injection into experimental animals. This preparation was also used for drying lipids onto tissue culture wells. For direct addition to cell cultures, the lipids were dissolved in culture medium at 125 ng/μl and sonicated for 2.5 minutes to produce a liposome preparation for administration to cells in culture.
# The cumulative disease index (CDI) was obtained by summing the daily average disease scores through Day 20. A mean of these daily disease scores (Mean Daily Disease) (+/−SEM) was calculated based on the 20 days of observation. The Mean Daily Disease scores were compared using the Wilcoxin Signed Rank tests for two samples. Disease incidence frequencies were compared using Chi square analysis. Values for mean maximum severity of EAE were compared using the Wilcoxin Signed Rank test. Values for mean day of onset of EAE were compared using the Student's t-test. For analysis of spinal cord populations, percentages were compared using Student's t test. Bacterial fatty acid levels in brain lipid extracts for each treatment group were evaluated using least squares linear regression analysis that included calculation of correlation coefficients. For each dose of bacterial lipid administered, linear regression analysis compared the final EAE score with the mean bacterial fatty acid recovered per 0.5 mg of brain lipid extract. The mean bacterial fatty acid levels were calculated from three replicate brain lipid determinations.
# EAE was induced in female C57BL/6 (WT) mice and these mice were also injected i.p. on Day 0 with either P. gingivalis lipids or the vehicle control, 70% ethanol (EtOH). To most effectively detect effects of P. gingivalis lipids in the development of autoimmunity, less severe EAE was induced by using CFA with […] concentrations of H37RA mycobacteria (500 μg/mouse). […] Component HPLC fractions of the TL were examined individually. […] FIG. 7 illustrates one representative experiment of six similar studies, in which 250 ng of PE DHC was administered to WT mice.
# Mice deficient in either IL-15 (IL-15^−/− mice) or the IL-15 receptor α (IL-15Rα^−/− mice) are known to express very few identifiable NKT cells (Kennedy et al. “Reversible defects in natural killer and memory CD8 T cell lineages in interleukin 15-deficient mice,” J. Exp. Med. 191:771-780 (2000); Lodolce et al. “IL-15 receptor maintains lymphoid homeostasis by supporting lymphocyte homing and proliferation” Immunity 9:669-676 (1998). WT mice and either IL-15^−/− or IL-15Rα^−/− mice (both on a C57BL/6 background) were immunized for EAE and given a single i.p. injection of EtOH or PE DHC on Day 0. […] FIGS. 8 and 9 show representative experiments using IL-15^−/− and IL-15Rα^−/− mice.
# TLR-2 deficient (TLR2^−/−) mice were immunized with the standard EAE-inducing MOG protocol and administered a single i.p. injection of either EtOH or PE DHC on Day 0.
# [3] = IL-15Rα−/− mice that developed EAE
# [4] = IL-15−/− mice that developed EAE
# [5] = TLR2−/− mice that developed EAE
# [6] = Wild Type mice that developed EAE
substance,measurement,setting,value
phosphoethanolamine dihydroceramide [PE DHC],Brain level of 3-OH isoC17:0 fatty acid,[1],higher levels of 3-OH isoC17:0 fatty acid
same,Mean Day of Onset of EAE,[2]; [3],13.8 days
same,Mean Maximum Severity of EAE,[2]; [3],2.9
same,Mean Incidence of disease,[2]; IL-15Rα−/− mice,100%
same,MDD (Mean Daily Disease),[2]; IL-15Rα−/− mice,0.9
same,CDI (cumulative disease index),[2]; IL-15Rα−/− mice,18.7
same,CDI and mean daily disease compared with EtOH-treated mice,[2]; IL-15−/− and IL-15Rα−/− mice,greater than a doubling
same,Effect on EAE,"[2]; IL-15−/− and IL-15Rα−/− mice, single i.p. injection Day 0",significantly enhanced EAE
same,Mean Day of Onset of EAE,[2]; [4],13.0 days
same,Mean Maximum Severity of EAE,[2]; [4],3.7
same,Mean Incidence of disease,[2]; IL-15−/− mice,90%
same,MDD (Mean Daily Disease),[2]; IL-15−/− mice,1.2
same,CDI (cumulative disease index),[2]; IL-15−/− mice,24.5
same,Mean Day of Onset of EAE,[2]; [5],14.7 days
same,Mean Maximum Severity of EAE,[2]; [5],2.9
same,Mean Incidence of disease,[2]; TLR2−/− mice,46.6%
same,MDD (Mean Daily Disease),[2]; TLR2−/− mice,0.4
same,CDI (cumulative disease index),[2]; TLR2−/− mice,8.3
same,Effect on CDI and mean daily disease,"[2]; TLR2−/− mice, single i.p. injection Day 0",did not mediate enhancement of CDI or mean daily disease
same,CDI and mean daily disease compared with EtOH-treated mice,"[2]; WT mice, 250 ng, cumulative results of six experiments",essentially a doubling
same,Effect on EAE disease,"[2]; WT mice, 2.5 μg, 250 ng and 25 ng, 250 ng most efficient",led to enhanced disease
same,Onset of disease compared to EtOH-treated mice,"[2]; WT mice, p=0.008",significantly earlier onset of disease
same,Effect on severity of EAE,"[2]; WT mice, single 250 ng i.p. injection on Day 0",consistently enhanced the severity of EAE
same,Mean Day of Onset of EAE,[2]; [6],12.1 days
same,Mean Maximum Severity of EAE,[2]; [6],3.6
same,Mean Incidence of disease,[2]; Wild Type mice,75%
same,MDD (Mean Daily Disease),[2]; Wild Type mice,1.0
same,CDI (cumulative disease index),[2]; Wild Type mice,19.8
